The values below come from publication PMC10244169, “Psychedelics promote plasticity by directly binding to BDNF receptor TrkB” (Nature Neuroscience, 2023).

The target in experiment [1] is T1, TrkB (Rattus norvegicus, UniProt Q63604).
T1 construct: expressed in transfected cells; host or cells: HEK293T
Description: biochemical. Type of experiment: binding.

In experiment [2] the target is T1, TrkB. The experiment can be described thus: Competition binding with biotinylated R,R-HNK. The protocol: Binding assays were performed as previously described with minor modifications. […] Samples from mouse embryo (E18) brains were also lysed, vortexed, sonicated and centrifuged for binding assays. Plates were then washed with PBS. […] For the competition binding assays with biotinylated R,R-HNK, the amino-biotinylation of R,R-HNK was performed using a commercial kit (Thermo Scientific, EZ-Link NHS-PEG4 Biotinylation Kit, 21455) and the reaction monitored by MS. A mixture of biotinylated R,R-HNK (10 µM) and unlabeled compounds (1 pM to 10 µM) in PBS was added to the 96-well plates containing the immunoprecipitated TrkB and incubated for 1 h at room temperature. […] Luminescence was determined via streptavidin conjugated with horseradish peroxidase (HRP; Thermo Fisher Scientific, 21126; 1:5,000, 1 h at room temperature) in reaction with the Pierce ECL substrate (Thermo Fisher Scientific, 32106). Luminescence from blank wells that contained all reagents but the sample lysates was used to determine nonspecific binding. To obtain the binding curves, results from binding assays were fitted to the equation of specific binding with Hill slope from GraphPad Prism 9.2. To calculate koff values, results were fitted to the equation of dissociation of one phase exponential decay from GraphPad Prism 9.2.

Another experiment addresses T2, TrkB (WT) dimerization (Rattus norvegicus, UniProt Q63604).
T2 construct: expressed in transfected cells; host or cells: N2a
The experiment can be described thus: Split-luciferase PCA of TrkB dimerization in N2a cells. The experiment is classed as cell-based. The settings on record: ketanserin 100 nM, M100907 100 nM or TrkB.FC 200 ng ml^−1, 10 min before. The protocol:
Ketanserin, M100907 and TRKB.FC were added to the media 10 min before treatment. The PCA method was performed as previously described[11],[75],[76]. Split humanized Gaussia princeps luciferase (hGLuc) was cloned on the C-terminus of the reporter proteins TrkB (WT and Y433F) and lipid raft Fyn. If the reporter proteins that carry complementary halves of the luciferase interact, the enzyme can refold in its functional conformation and, upon addition of its substrate, produce luminescence proportionally to the amount of reporter proteins interacting at a given time. N2a cells were seeded in 96-well plates with opaque walls and transparent bottom (PerkinElmer, ViewPlate 96). Cells were transfected with Lipofectamine 2000 according to the manufacturer’s instructions 24 h post-plating with the PCA pair plasmids: phGLuc(1C)-TrkB(WT) or the mutant phGLuc(1C)-TrkB(Y433F) and phGLuc(2 C)-TrkB(WT) for the dimerization experiments; phGLuc(1C)-lipid raft Fyn and phGLuc(2C)-TrkB(WT) or phGLuc(2C)-TrkB(Y433F) for the lipid raft localization experiments. Forty-eight hours post transfection, cells were treated (40 min, 37 °C) in phenol red-free Dulbecco’s modified Eagle medium without serum. […] The PCA signal was detected with the substrate for the luciferase, native coelenterazine, which was injected into each well directly in the plate reader at a final concentration of […].

The test system of experiment [3] is dendritic arbor complexity of neuronal cultures. More on the design: method as in PMID 29898390. The settings on record: cultured neurons; cited from earlier work.
[4] abbreviates: ext fig 1f, competition curve, n=5.

T1 sequence (Q63604 32-821): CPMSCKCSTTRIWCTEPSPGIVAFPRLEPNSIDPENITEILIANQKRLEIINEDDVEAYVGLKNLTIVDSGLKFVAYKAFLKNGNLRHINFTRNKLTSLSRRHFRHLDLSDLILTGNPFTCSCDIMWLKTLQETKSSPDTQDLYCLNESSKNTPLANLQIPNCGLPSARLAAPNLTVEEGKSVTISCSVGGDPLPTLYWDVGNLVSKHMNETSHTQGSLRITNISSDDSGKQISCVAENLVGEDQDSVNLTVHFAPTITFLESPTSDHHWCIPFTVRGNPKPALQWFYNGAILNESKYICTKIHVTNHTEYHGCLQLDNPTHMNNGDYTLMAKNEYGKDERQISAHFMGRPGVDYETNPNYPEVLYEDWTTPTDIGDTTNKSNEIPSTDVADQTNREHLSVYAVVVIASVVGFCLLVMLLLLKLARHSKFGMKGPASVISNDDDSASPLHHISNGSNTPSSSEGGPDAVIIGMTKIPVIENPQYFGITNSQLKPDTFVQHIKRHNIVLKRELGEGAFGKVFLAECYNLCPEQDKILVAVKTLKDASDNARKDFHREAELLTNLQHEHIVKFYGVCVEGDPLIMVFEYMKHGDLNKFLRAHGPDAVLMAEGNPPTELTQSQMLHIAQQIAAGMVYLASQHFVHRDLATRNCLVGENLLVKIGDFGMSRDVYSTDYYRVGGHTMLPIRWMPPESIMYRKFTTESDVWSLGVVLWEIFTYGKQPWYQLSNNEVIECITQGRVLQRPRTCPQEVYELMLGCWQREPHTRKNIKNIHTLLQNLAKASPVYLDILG
T2 sequence (Q63604 32-821): as above
T2 sequence (Q63604 32-821): as above

`O=C(c1ccc(F)cc1)C1CCN(CCn2c(=O)[nH]c3ccccc3c2=O)CC1` [ketanserin, ketanserin (+)-tartrate]: the “displacement of ^3H-LSD from TrkB” value on TrkB [1] (1 nM to 10 µM of drug) is “fail to displace LSD binding to TrkB”. Moreover, the “Fit status, specific binding with Hill slope” value on TrkB [1] (ext fig 1f) is listed as “Ambiguous”. On TrkB [1] (setting [4]), the “Bmax (specific binding with Hill slope, best-fit)” value is listed as 96.24 and the “h (Hill slope, best-fit)” value was ~ 0.3927. Moreover, the “displacement of biotinylated R,R-HNK from TrkB” value at TrkB [2] (biotinylated R,R-HNK 10 µM) was “not ketanserin, displace R,R-HNK binding to TrkB”. Also, at TrkB [2] (ext fig 1g), the “K (one phase decay, best-fit)” value is reported as 1491612413; the “Plateau (one phase decay, best-fit)” value is recorded as 97.9; the “Span (one phase decay, best-fit)” value came to 2.855; the “Tau (one phase decay, best-fit)” value is reported as 6.70E-10. Also, on TrkB [2] (ext fig 1g), the “Y0 (one phase decay, best-fit)” value is given as 100.8. The “effect of pretreatment on LSD- and BDNF-induced TrkB dimerization” value on TrkB (WT) dimerization is “fails to prevent the effects of LSD and BDNF on TrkB dimerization”. In addition, the “effect on LSD effects on dendritic arbor complexity” value in experiment [3] is given as “prevent the effects of LSD on dendritic arbor complexity”.
